Consider one compound from paper PMC10877577 (ACS Chemical Biology, 2024).

“Also recorded” adds a separate entry of the source.

The test system of test [1] is GWARA-flexi-IL12 secretion from transduced PBMCs. Briefly: IL12 secretion assay (KDEL retention system). The test is classed as cell-based, human. To be noted: minocycline up to 2.5 μM. How it is done: (§1) IFN-γ, IL2, and IL12 secretion was measured by collecting the supernatant from the respective cell-based assay and frozen at −20 °C prior to analysis by ELISA. IFN-γ, IL2, and IL12 ELISAs were carried out using the Human IFN-γ ELISA MAX Deluxe kit, Human IL2 ELISA MAX Deluxe kit, and Human IL12 (p70) ELISA MAX Deluxe kit in accordance with the manufacturer’s instructions (BioLegend).
Transduced PBMCs were stained for the independent HA expression marker by using an anti-HA-PE antibody to determine transduction efficiency. Cells were normalized to 60% using nontransduced T cells prior to assay set up. For the assay set up, 0.5 × 10^4 transduced cells were cultured in RPMI (RPMI-1640) supplemented with 10% fetal bovine serum (FBS), 2 mM GlutaMAX, and IL2 at a concentration of 100 UI/mL. […] IL12 ELISA was carried out following manufacturer’s instructions (BioLegend, 431704).

The next test has as its system aMinoC1-peptide complex. The test is described as follows: SPR rechallenge: small-molecule-driven dissociation of peptide-Fc from immobilized aMinoC1. The test is classed as binding. To be noted: peptide-Fc 100 nM, small molecule 1 μM. How it is done:
Binding assays were carried out using 1x HBS-EP+ running buffer. Various concentrations (2.5 μM with 2-fold serial dilutions) of the analyte were injected for 150 s at 30 μL/min with 150 s dissociation time. Glycine-HCl (pH 2.0) was used as the regeneration buffer for the sensor chips. For the rechallenge experiment, aMinoC1 was immobilized on a CM5 sensor chip and CX7C peptide-Fc conjugates were loaded at 100 nM and injected as the analyte for 150 s at 30 μL/min. Following the injection of peptide-Fc, a small molecule at 1 μM was injected for 300 s at 30 μL/min, using dual injection function on a Biacore 8k instrument, to dissociate the peptide-Fc from the aMinoC1-peptide complex. The system was then washed using HBS-P^+ buffer for 300 s at 30 μL/min prior to rechallenge with peptide-Fc. The cycle was repeated three times following a final dissociation step of 300 s. For the alanine scanning experiments, the anti-minocycline antibody (sdAb-muIgG2a-Fc fusion) was captured on a Protein A series S sensor chip, to a density of 3000 RU. […] Glycine-HCl (pH 1.5) was used as the regeneration buffer. In each case, flow cell 1 was used for reference subtraction, and a “0 concentration” sensogram of buffer alone was used as a double reference subtraction to factor for drift. Data analysis was carried out using Biacore T200 Evaluation Software, version 3.0, and Biacore Insight evaluation software. The 1:1 Langmuir binding model was used to calculate the association (ka), dissociation (kd) rate constants, and equilibrium dissociation constant (KD).

The test system of the next test is aMinoC1 sdAb. Briefly: ELISA of CX7C-muIgG2a-Fc peptide fusions on aMinoC1 with or without minocycline. The test is classed as binding, alpaca. The conditions noted are these: 1 μM minocycline. (In general: ELISA stands for enzyme-linked immunosorbent assay.)
Test [2] has as its system MinoCAR-transduced PBMC against SupT1-EGFR+ target cells. The test is described as follows: Cytokine release of MinoCAR PBMCs. The test is classed as cell-based, human. The conditions noted are these: minocycline supplementation, 24 h, 1:2 E/T. Here is the method: Transduced CAR T cells were determined by staining for the transduction marker RQR8 and normalized by the addition of nontransduced T cells. Effector cells were cocultured with 5.0 × 10^4 number of target cells (SupT1-NT, SupT1-EGFR+, SKOV3-mKate) to achieve the desired effector cell to target ratio. Where appropriate, minocycline was supplemented as a part of the culture conditions. Cocultures were incubated for 24–72 h at 37 °C and 5% CO2. After incubation, plates were centrifuged at 400g for 5 min, and the supernatant containing secreted cytokines was collected for cytokine analysis. Cells were stained with anti-hCD34-APC and anti-CD3-PeCy7 to differentiate effector T cells and target cells. Cells were washed with 300 μL o PBS and stained with SYTOX Blue Dead Cell Stain dye. The percentage of target cell survival was measured relative to the number of live target cells cocultured with nonspecific CAR T cells or nontransduced PBMCs.
as §1

`CN(C)c1ccc(O)c2c1C[C@H]1C[C@H]3[C@H](N(C)C)C(O)=C(C(N)=O)C(=O)[C@@]3(O)C(O)=C1C2=O` [minocycline]: the IL12 release result in test [1] (day 2, aMinoC1-KDEL construct) is listed as “up to 150 pg/mL”. This compound gave an IL12 release in test [1] (day 7, aMinoC1-KDEL construct) of at most 2.2 µg/mL. Further, in the test on aMinoC1-peptide complex, the “GWARA-Fc dissociation from immobilized aMinoC1 on small-molecule injection” value is “acceleration of GWARA-Fc dissociation; also recorded: specifically reversed”; the “peptide-Fc (HWAQA, PWAYS and QWAMM) dissociation from immobilised aMinoC1 on small-molecule injection” value is “acceleration”. Further, the “ELISA detection of peptide-Fc on aMinoC1 in presence of minocycline” value with aMinoC1 sdAb is listed as “out-competed peptide-Fc conjugates”. In test [2], the “reduction (minus) of IFN-γ secretion” value is on record as 2.7 fold and the “reduction (minus) of IL2 secretion” value is 1.9 fold.
